The record followed here is paper PMC11542186, “Pin1 WW Domain Ligand Library Synthesized with an Easy Solid-Phase Phosphorylating Reagent” (Biochemistry, 2024).

The target in assay [1] is T1, Pin1 WW domain (full-length 15N-Pin1) (Homo sapiens, UniProt Q13526).
T1 construct: Full-length Pin1 was overexpressed and purified as described previously; made in house
The experiment in a line: NMR 15N-1H HSQC chemical shift perturbation titration. Conditions: global two-state fit of WW domain NH CSPs; 295 K; pH 6.6; 48.6 μM Pin1; read-out: NMR CSP Kd. The assay is classed as binding. From the text: The ELEBA was developed as a method for high-throughput screening, rather than as an absolute measure of binding affinity. […] Since L1 is linked to the plate, ELEBA is not to be taken as a direct measurement of binding affinity.[32] We undertook NMR measurements to determine the affinity and location of binding directly by NMR to distinguish between binding to the catalytic and WW domains of Pin1. Standard NMR backbone ^15N–^1H chemical shifts were mapped onto existing assignments of Pin1 by recording 2-D ^15N–^1H HSQC spectra of full-length ^15N-Pin1 at different ligand concentrations (Figures S2–S5). NH cross-peaks showing ligand-induced chemical shift perturbations (CSPs) identified residues affected by binding. The largest magnitude CSPs were localized to the WW domain.
Full-length Pin1 was overexpressed and purified as described previously.[47] The final NMR buffer conditions were 30 mM imidazole-D4, pH 6.6, with 30 mM NaCl, 0.03% NaN3, 5 mM DTT-d10, and 90%H2O/10%D2O. The ligand stock solutions included 2.4 and 24 mM for 1{18,l}; 2.4 and 16 mM for trans-1{2,d}; 2.4 and 12 mM for cis-1{2,d}; 2.4 mM and 12 mM for 1{2,n}. The stock concentrations were confirmed by standard 1-D ^1H NMR of the samples diluted in the buffer described above.
The NMR titration spectra were recorded at a nominal temperature of 295 K, on a Bruker Avance 700 MHz (16.4 T) spectrometer equipped with a cryogenically cooled TCI probe. Sequential resonance assignments for wild type Pin1 were from our prior publications.[34],[35],[46]−[48] Data processing and cross-peak analysis used Topspin 1.3 and 2.1 (Bruker Biospin, Inc.), and Sparky (T. D. Goddard and D. G. Kneller, SPARKY 3, University of California, San Francisco). The initial Pin1 concentration (apo-Pin1) was 48.6 μM. We recorded 2-D ^15N–^1H HSQC spectra per Mori et al.[51] after each addition of ligand to get NH binding isotherms (NH chemical shift perturbations as a function of the total ligand concentration). Each 2-D data set consisted of 128 FIDs (64 complex points), with 16 scans per FID and a recycle time of 1s. The ^1H^N spectral width was 15 ppm, centered at 4.703 ppm; the ^15N spectral width was 35.24 ppm, centered at 118 ppm. The binding-induced ^15N–^1H chemical shift perturbations (CSPs) were calculated by eq 3. [drawing 4] 3 [35]
The ΔδH and ΔδN terms are the amide ^1H and ^15N chemical shift differences relative to isolated Pin1. To estimate the ligand Kd values for WW domain binding, we globally fitted WW domain NH binding isotherms to the expression for the bound protein fraction in a standard two-state binding equilibrium, P + L ⇌ PL, as described in our previous Pin1 studies.[35] The monitored WW domain residues included K13, R14, M15, S16, G20, R21, A31, S32, Q33, W34, and E35. […]

Assay [2] addresses T2, Pin1 WW domain (Pin1–HRP) (Homo sapiens, UniProt Q13526).
T2 construct: purchased R&D Systems
The experiment in a line: ELEBA competitive binding Kd-obs determination. Conditions: for Kd: competitive with plate-linked L1, concentration at which % Pin1-HRP bound to the plate is 50%, purified resynthesized ligands, 200 pM Pin1–HRP. How it is done:
Concentration-dependent ELEBAs were performed for ligands 1{2, d}, 1{18, l}, cis-1{2, n}, and trans-1{2, n} obtained by large-scale manual solid-phase synthesis and purification. The cis- and trans-isomers of 1{2, d} were separated by HPLC. The two diastereomers (∼ 1:1) of 1{18, l} were used as a mixture because they were inseparable in our systems. Competitive dissociation constants (Kd-obs) were measured by ELEBA (Figure 4). Kd-obs values were normalized to percentage Pin1–HRP bound to the plate-linked ligand by setting the lowest concentration of competitive ligand in solution to 100% binding.[32]Kd-obs is defined as the concentration of a ligand where the % Pin1-HRP bound to the plate is 50%.
(§1) The Pin1 WW domain ligand, Fmoc–VPRpTPVGGGK–NH2, (100 μL/well, 245 μM stock solution) was covalently attached to a 96-well plate through the ε-amino group of the Lys side chain at pH 11.0, as published.[44] Ligands were dissolved in DMSO at stock concentrations of ca. 50 mM by weight. Competitive binding with plate-linked Fmoc–VPRpTPVGGGK–NH2L1 of pSer–Pro dipeptides was measured at ca. 600 μM for primary screening. In the primary assays, all library members were screened with the crude products. 1{1-21, d} were measured as mixtures of cis- and trans-isomers. Library members synthesized from racemic reagents, such as 1{1-21, c}, 1{1-21, l}, 1{1-21, q}, 1{3, a-q} and 1{8, a-q} were measured as diastereomeric mixtures. The library members were dissolved in DMSO as stock solutions with a concentration of about 37 mM based on estimated yields. The DMSO stock solution of each compound (4 μL) was added into a solution of recombinant Pin1–HRP (R&D Systems) in a PBS buffer with 2% BSA (pH = 7.3). DMSO (4 μL) was used as a negative control. The final volume of the solution was 250 μL, the final concentration of Pin1–HRP was 200 pM, and the estimated final compound concentration was 590 μM. The resulting solution was preincubated for 30 min at ambient temperature, and was added into two wells (100 μL each, for assay in duplicate) of the ligand-linked plate. The solutions were incubated for another 1 h. The solutions were removed by inverting and shaking the plate, and the plate was washed with buffer ([…], and 0.05% Tween 20 in PBS at pH 7.3) three times. A 1:1 solution of hydrogen peroxide and 3,3,5,5′-tetramethylbenzidine (100 μL) was added into each plate well, and incubated in the dark for 20 min. A 2N H2SO4 solution (50 μL) was added to each well to quench the reaction, and the absorbance of was determined at 450 nm. The percentage of Pin1–HRP bound to the plate (% binding) was calculated by eq 1. To calculate the absorbance of a plate well in eq 1, the blank ligand-linked plate was predetermined at the same wavelength, and the absorbance of the blank well was subtracted from the absorbance of the same well containing the final solution. [drawing 2] 1
The competitive dissociation constants, Kd-obs, of cis-1{2, d}, trans-1{2, d}, 1{2,o}, and 1{18, m} were determined by ELEBA after the large-scale synthesis, HPLC purification, and quantification. The final concentrations of each compound were: 2.0, 10, 30, 50, 100, 200, 300, 500, 700, 1000, and 2000 μM. Ligands stock concentrations were 88 mM by weight, and the final concentrations for competitive dissociation constants (Kd) were 2000, 1000, 700, 500, 300, 200, 100, 50, 30, 10, and 5.0 μM. […]

In assay [3] the target is T2, Pin1 WW domain (Pin1–HRP). Description: ELEBA secondary binding assay. The conditions noted are these: 270 μM; crude product; DMSO = 100%. How it is done: (§2) The library was screened by the ELEBA we reported previously.[44] The crude products resulting from diethyl ether precipitation were used for the primary and secondary ELEBA without additional purification. The concentrations of the crude products were estimated based on quantitative yields; actual concentrations were thus lower, depending on yield and purity. The library products were dissolved in DMSO as stock solutions for assays. […] Recombinant human Pin1 conjugated to horseradish peroxidase (Pin1–HRP) was used in the binding assays.[44] Fmoc-VPRpTPVGGGK-NH2 L2 was used as the positive control and DMSO was used as the negative control on each plate. The percent of Pin1–HRP bound to the plate was calculated by normalizing the binding with DMSO to be 100%. In the primary assays (Figure S1), 14 of the best library members were identified: 1{2,d}, 1{18,f}, 1{20,f}, 1{10, l}, 1{13, l}, 1{18, l}, 1{20, l}, 1{10, n}, 1{18, n}, 1{19, n}, 1{2, n}, 1{20, n}, 1{14, o}, 1{3, o}. In the secondary assay, these ligands were measured again at 270 μM, and three hits, 1{2, d}, 1{18, l} and 1{2, n}, were chosen for further analysis (Figure 3).
The best ligands from each group that blocked Pin1 WW domain binding of HRP-Pin1 bound to plate were reassayed at 270 μM to identify the best ligands through the same procedures above.

Assay [4] deals with T2, Pin1 WW domain (Pin1–HRP). Description: ELEBA primary screening assay of the library. In kind it is binding. Conditions: separate plate of groups A and B (L2 control 85.0443); crude library members; DMSO = 100%; mean of N = 2. How it is done:
as §2
as §1, with “2] 1 […]” for “2] 1”
The Fmoc-Ser(2- […]
cyanoethylphosphate)-OH product was cleaved from the resin with TFA. 1H NMR indicated the presence of the Fmoc group, implying that the substrate was successfully attached to the resin (data not shown). To develop the coupling methods, 2-(2-naphthyl)ethylamine and propionic acid were reacted with the pSer–Pro resin. The resulting propanoyl-pSer–Pro–(2-(2-naphthyl)ethyl)-amide (1H NMR below) was excluded from the library assays.
Figure S1 (following pages). Ligands (group A – O) were screening using ELEBA at ca. 266 µM.
Fmoc-VPRpTPVGGGK-NH2 L2 was used as positive control at 76-87 µM from stock solutions […]
of 4.3-4.8 mM. […]

T1 sequence (Q13526 whole entry, the tested form may be a part): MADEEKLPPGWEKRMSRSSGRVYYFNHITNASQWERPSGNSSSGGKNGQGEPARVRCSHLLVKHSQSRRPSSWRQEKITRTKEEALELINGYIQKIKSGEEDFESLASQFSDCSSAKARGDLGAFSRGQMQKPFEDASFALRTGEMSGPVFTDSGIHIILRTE
T2 sequence (Q13526 whole entry, the tested form may be a part): as above

On to `CC(C)(Oc1ccc(Cl)cc1)C(=O)NC(COP(=O)(O)O)C(=O)N1CCCC1C(=O)Nc1ccc2[nH]ncc2c1` (centres unmarked) [1{2, n}], for which the dissociation constant (Kd) (in general, the concentration at which binding is half-saturated) in assay [1] turned out to be 208 ± 6 µM; in assay [2], 206 ± 3 µM.
In the case of `O=C(C=CSc1ccccc1)NC(COP(=O)(O)O)C(=O)N1CCCC1C(=O)Nc1ccc2[nH]ncc2c1` (stereo not drawn) [cis-1{2, d}], the Kd in assay [1] was determined as 95 ± 6 µM; in assay [2] it was 263 ± 6 µM. Besides, the “relative potency cis vs trans isomer” value in assay [2] (ELEBA Kd-obs of cis-1{2, d} vs trans-1{2, d}) is reported as “about three times as potent as trans-1{2, d}”.
Regarding `COc1ccc2c(c1)C(CC(=O)NC(COP(=O)(O)O)C(=O)N1CCCC1C(=O)NNC(=O)c1ccoc1)CC2=O` (centres unmarked) [1{18, l}], the equilibrium dissociation constant (Kd) came out at 105 ± 9 µM in assay [1] and 130 ± 3 µM in assay [2].
The like results for `O=C(C=CSc1ccccc1)NC(COP(=O)(O)O)C(=O)N1CCCC1C(=O)Nc1ccc2[nH]ncc2c1` (stereo not drawn) [trans-1{2, d}] were, in that order, 214 ± 25 µM and 820 ± 6 µM.
`O=C(/C=C/c1c[nH]cn1)N[C@@H](COP(=O)(O)O)C(=O)N1CCC[C@H]1C(=O)N1CCOCC1` [1{20,b}]: in assay [3], the “ELEBA secondary screen, % of baseline activity” value is “ca. 140%”. Further, the “% of Pin1-HRP bound to plate-linked ligand” value in assay [4] worked out at 76.1089%.
